Measured values taken from patent publication US10947296B2, “Fusion protein Slit2D2(C386S)-HSA and use thereof in treatment of fibrotic diseases” (SUZHOU THINKING POWER BIOTECHNOLOGY CO., LTD., priority 2016, dated 2021).

Tests used:
[1] = test system: pulmonary fibrosis model; test: Efficacy on bleomycin-induced pulmonary fibrosis model; type: in vivo; set-up: body weight of the animals (Mean ± SEM) / Weight of the left lung (Mean ± SEM) / Volume of the left lung (Mean ± SEM): unit not given here; conditions: for body weight of the animals (Mean ± SEM): PFD 50mpk BID PO
Procedure: Animals were anesthetized by inhaling isoflurane. After confirmation of anesthesia, the animals were sterilized, then the neck skin was cut, the muscles were bluntly separated to expose the trachea, and bleomycin (dosage: 3 mg/kg, volume: 1.0 mL/kg) was directly injected between the tracheal rings. After the operation, the animals were placed in a 37° C. electric blanket to keep warm until the animals were completely awakened. After confirming that they were able to eat and drink freely, the animals were returned to the cage for normal feeding.
In this experiment, there were four groups, i.e., model group (experimental group-1, […]), PFD group (experimental group-2, n=6), Slit2D2(C386S)-HSA-1 mg/kg (experimental group-3, n=6), and Slit2D2(C386S)-HSA-5 mg/kg (experimental group-4, n=6).
In this experiment, the positive control drug (PFD) was given to rats by gavage twice a day, which was started on the day of modeling, and administered continuously for 14 days. The test compound (Slit2D2(C386S)-HSA) was given intravenously once every other day, which was started on the day of modeling, and a total of seven doses were administered (as shown in table 6).
Physiological observation of the experimental animals: changes in body weight of the animals were measured (body weight was measured once a day before administration); and the death rate of animals during the test period was monitored.
Animals were euthanized 24 hours after the last administration on the 14th day of modeling. After confirming the death of the animals, the left lung was fixed by intrapulmonary infusion of formalin, and the volume and weight of the left lung after perfusion were measured for relevant examination of the pulmonary pathology.
General pathological examination: After the perfusion with an equal amount of formalin in the left lung, the wet weight of left lung after perfusion was weighed/recorded with a micro-balance; and the volume of left lung after perfusion was measured and recorded using a micro-measuring cup.
Pathological examination of lung tissue: The whole lung was dehydrated. Lung paraffin sections were made with paraffin blocks. […] HE staining and Masson Trichrome staining were performed according to pathological staining SOP, and whole section scanning was performed using a Digital Pathscope slice scanner. Pathological analysis and scoring of changes in damage and inflammation of terminal bronchioles and accompanying small pulmonary artery at the periphery of the lesions (as shown in Tables 7 and 8 and FIG. 7) were performed using the HE-stained sections. Lesion area calculation, lesion pathology analysis and scoring were performed with the Masson Trichrome-stained sections (as shown in Table 9 and FIG. 8).
The mean±sd or mean±sem was calculated using the graphpad prism software, and the significant difference test was performed using t-test, one-way ANOVA and two-way ANOVA test. A significant difference between the two groups was considered at p<0.05.

[2] = molecular target: T1, Robo1 protein (Homo sapiens, UniProt Q9Y6N7); test: Affinity of the fusion protein to receptor Robo1 determined by SPR; type: binding; conditions: Robo1 bound to CM5 chip
T1 construct: purchased ORIGEN TP327713
T1 sequence (Q9Y6N7 26-1651): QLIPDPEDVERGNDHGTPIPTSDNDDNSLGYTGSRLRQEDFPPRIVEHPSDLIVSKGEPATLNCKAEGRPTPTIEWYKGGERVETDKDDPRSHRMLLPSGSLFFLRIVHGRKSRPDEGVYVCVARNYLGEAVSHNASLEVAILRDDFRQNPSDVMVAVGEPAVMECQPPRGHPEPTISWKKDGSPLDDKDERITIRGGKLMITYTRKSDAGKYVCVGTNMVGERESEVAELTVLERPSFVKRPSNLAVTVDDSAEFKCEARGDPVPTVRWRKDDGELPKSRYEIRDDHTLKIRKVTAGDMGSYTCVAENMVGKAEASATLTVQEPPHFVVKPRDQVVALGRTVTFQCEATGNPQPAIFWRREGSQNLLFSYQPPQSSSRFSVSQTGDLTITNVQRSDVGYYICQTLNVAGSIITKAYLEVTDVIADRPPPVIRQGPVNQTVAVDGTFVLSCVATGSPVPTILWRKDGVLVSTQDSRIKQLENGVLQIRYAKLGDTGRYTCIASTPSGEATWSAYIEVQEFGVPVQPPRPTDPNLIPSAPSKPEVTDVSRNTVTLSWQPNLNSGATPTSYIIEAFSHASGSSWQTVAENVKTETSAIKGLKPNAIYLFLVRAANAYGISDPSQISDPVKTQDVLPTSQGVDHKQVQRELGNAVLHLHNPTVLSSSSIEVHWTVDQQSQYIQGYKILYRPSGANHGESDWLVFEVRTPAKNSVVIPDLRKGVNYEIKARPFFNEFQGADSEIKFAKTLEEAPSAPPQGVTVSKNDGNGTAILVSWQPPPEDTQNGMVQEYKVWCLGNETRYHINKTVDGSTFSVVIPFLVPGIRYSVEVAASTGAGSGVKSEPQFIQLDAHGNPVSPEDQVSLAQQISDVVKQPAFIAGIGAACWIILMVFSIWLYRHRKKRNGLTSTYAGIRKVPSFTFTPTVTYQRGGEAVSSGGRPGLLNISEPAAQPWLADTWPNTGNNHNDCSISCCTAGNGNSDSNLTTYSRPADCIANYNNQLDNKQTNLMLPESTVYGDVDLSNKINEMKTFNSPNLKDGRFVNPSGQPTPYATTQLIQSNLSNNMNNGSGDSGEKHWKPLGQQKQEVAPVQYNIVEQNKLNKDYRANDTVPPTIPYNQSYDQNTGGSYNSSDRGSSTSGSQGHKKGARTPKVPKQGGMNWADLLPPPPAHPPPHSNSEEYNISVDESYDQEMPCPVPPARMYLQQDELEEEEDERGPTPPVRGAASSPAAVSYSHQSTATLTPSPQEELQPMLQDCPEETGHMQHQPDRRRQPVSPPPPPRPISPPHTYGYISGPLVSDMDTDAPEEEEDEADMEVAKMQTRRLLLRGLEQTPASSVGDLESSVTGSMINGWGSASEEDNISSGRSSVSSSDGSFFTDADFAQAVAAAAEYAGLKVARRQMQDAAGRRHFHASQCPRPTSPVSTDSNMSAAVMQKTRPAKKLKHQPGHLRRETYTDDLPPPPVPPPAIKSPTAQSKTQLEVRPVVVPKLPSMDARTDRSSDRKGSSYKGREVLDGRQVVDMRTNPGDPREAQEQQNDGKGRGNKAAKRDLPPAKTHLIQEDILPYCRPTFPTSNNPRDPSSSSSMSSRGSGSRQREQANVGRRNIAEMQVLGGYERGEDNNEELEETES
Procedure: The affinity constant between the protein and Robo1 protein was detected by SPR (Surface Plasmon resonance BIAcore 200) method. The Robo1 protein (ORIGEN, Art. No.: TP327713) was bound to a CM5 chip, and the interaction between the fusion protein Slit2D2(C386S)-HSA (prepared in Example 1), Slit2D2-HSA (as disclosed in Patent Application PCT/CN2015/092079), and the receptor protein Robo1 were analyzed. Kinetic measurements were performed according to the method referred by Canziani et al. (2004, Anal. Biochem. 325: 301-307). Furthermore, the affinity of the Slit2N protein (Slit2N is a protein having a molecular weight of about 120 kDa at the N-terminus of the Slit2 protein) to Robo1 protein was also determined by the same method.

| Ka [2] | Molecule | body weight of the animals (Mean ± SEM) ([1]; Day 1) | body weight of the animals (Mean ± SEM) ([1]; Day 3) | body weight of the animals (Mean ± SEM) ([1]; Day 5) | body weight of the animals (Mean ± SEM) ([1]; Day 7) | body weight of the animals (Mean ± SEM) ([1]; Day 9) | body weight of the animals (Mean ± SEM) ([1]; Day 11) | body weight of the animals (Mean ± SEM) ([1]; Day 13) | inhibition on the progression of pulmonary fibrosis ([1]; continuous administration for 14 days, 50 mg/kg PO BID) |
| --- | --- | --- | --- | --- | --- | --- | --- | --- | --- |
|  | Cc1ccc(=O)n(-c2ccccc2)c1 [PFD, Pirfenidone, reference compound] | 279.4 ± 2.3 | 261.8 ± 3.9 | 265.0 ± 6.4 | 282.9 ± 7.4 | 298.4 ± 8.0 | 312.6 ± 8.8 | 321.7 ± 8.3 | significant inhibition |
| 743600 M⁻¹ s⁻¹ | Slit2N: Protein having a molecular weight of about 120 kDa at the N-terminus of the Slit2 protein (protein) QCSCSGSTVDCHGLALRSVPRNIPRNTERLDLNGNNITRITKTDFAGLRHLRVLQLMENKISTIERGAFQDLKELERLRLNRNHLQLFPELLFLGTAKLYRLDLSENQIQAIPRKAFRGAVDIKNLQLDYNQISCIEDGAFRALRDLEVLTLNNNNITRLSVASFNHMPKLRTFRLHSNNLYCDCHLAWLSDWLRQRPRVGLYTQCMGPSHLRGHNVAEVQKREFVCSGHQSFMAPSCSVLHCPAACTCSNNIVDCRGKGLTEIPTNLPETITEIRLEQNTIKVIPPGAFSPYKKLRRIDLSNNQISELAPDAFQGLRSLNSLVLYGNKITELPKSLFEGLFSLQLLLLNANKINCLRVDAFQDLHNLNLLSLYDNKLQTIAKGTFSPLRAIQTMHLAQNPFICDCHLKWLADYLHTNPIETSGARCTSPRRLANKRIGQIKSKKFRCSAKEQYFIPGTEDYRSKLSGDCFADLACPEKCRCEGTTVDCSNQKLNKIPEHIPQYTAELRLNNNEFTVLEATGIFKKLPQLRKINFSNNKITDIEEGAFEGASGVNEILLTSNRLENVQHKMFKGLESLKTLMLRSNRITCVGNDSFIGLSSVRLLSLYDNQITTVAPGAFDTLHSLSTLNLLANPFNCNCYLAWLGEWLRKKRIVTGNPRCQKPYFLKEIPIQDVAIQDFTCDDGNDDNSCSPLSRCPTECTCLDTVVRCSNKGLKVLPKGIPRDVTELYLDGNQFTLVPKELSNYKHLTLIDLSNNRISTLSNQSFSNMTQLLTLILSYNRLRCIPPRTFDGLKSLRLLSLHGNDISVVPEGAFNDLSALSHLAIGANPLYCDCNMQWLSDWVKSEYKEPGIARCAGPGEMADKLLLTTPSKKFTCQGPVDVNILAKCNPCLSNPCKNDGTCNSDPVDFYRCTCPYGFKGQDCDVPIHACISNPCKHGGTCHLKEGEEDGFWCICADGFEGENCEVNVDDCEDNDCENNSTCVDGINNYTCLCPPEYTGELCEEKLDFCAQDLNPCQHDSKCILTPKGFKCDCTPGYVGEHCDIDFDDCQDNKCKNGAHCTDAVNGYTCICPEGYSGLFCEFSPPMVLPR |  |  |  |  |  |  |  |  |
